From ChEMBL document CHEMBL1201862, “PubChem BioAssay data set” (2004) come the findings set out here.

The target of series [1] is T1, Cytochrome P450 1A2 (Homo sapiens, UniProt P05177).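 Also: PubChem cytochrome P450 panel assay, CYP1A2 panel member.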
T1 sequence (P05177 whole entry): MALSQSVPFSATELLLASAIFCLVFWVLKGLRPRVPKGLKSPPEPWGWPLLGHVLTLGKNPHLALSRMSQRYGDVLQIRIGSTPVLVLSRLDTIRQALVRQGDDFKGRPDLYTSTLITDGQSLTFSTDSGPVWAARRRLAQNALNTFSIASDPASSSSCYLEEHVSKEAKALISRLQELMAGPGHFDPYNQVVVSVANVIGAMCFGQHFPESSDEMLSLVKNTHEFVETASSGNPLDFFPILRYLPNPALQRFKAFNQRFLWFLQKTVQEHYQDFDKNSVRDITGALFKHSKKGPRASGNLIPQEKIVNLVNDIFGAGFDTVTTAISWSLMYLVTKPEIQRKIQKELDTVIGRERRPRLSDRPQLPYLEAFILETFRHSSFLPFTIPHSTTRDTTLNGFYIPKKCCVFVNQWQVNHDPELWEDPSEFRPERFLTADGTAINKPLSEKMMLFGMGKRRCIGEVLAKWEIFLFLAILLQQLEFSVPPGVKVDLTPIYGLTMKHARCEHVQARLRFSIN

Series [2] concerns the target Cytochrome P450 2C9 (Homo sapiens, UniProt P11712).
For series [3], the target named is T2, RNA-binding protein pos-1 (Caenorhabditis elegans, UniProt G5EF15).
T2 sequence (G5EF15 whole entry): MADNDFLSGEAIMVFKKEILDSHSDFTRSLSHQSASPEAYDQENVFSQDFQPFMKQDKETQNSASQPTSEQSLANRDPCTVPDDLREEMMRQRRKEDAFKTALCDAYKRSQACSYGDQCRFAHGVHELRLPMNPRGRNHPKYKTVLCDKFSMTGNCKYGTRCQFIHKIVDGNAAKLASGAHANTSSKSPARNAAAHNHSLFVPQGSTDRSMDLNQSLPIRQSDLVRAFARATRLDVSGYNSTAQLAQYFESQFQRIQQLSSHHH
In words: disruptors of C. elegans POS-1 RNA interaction – biochemical, fluorescence polarization, dose response (AID 1964).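 Also: purified POS-1 fused to maltose binding protein made in E. coli; potency of compounds blocking POS-1 binding to fluorescent RNA.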 In general terms: Polarisation of emitted light reports the rotation of a fluorescent probe.

Series [4] deals with T3, Zinc finger protein mex-5 (Caenorhabditis elegans, UniProt Q9XUB2).
T3 sequence (Q9XUB2 whole entry): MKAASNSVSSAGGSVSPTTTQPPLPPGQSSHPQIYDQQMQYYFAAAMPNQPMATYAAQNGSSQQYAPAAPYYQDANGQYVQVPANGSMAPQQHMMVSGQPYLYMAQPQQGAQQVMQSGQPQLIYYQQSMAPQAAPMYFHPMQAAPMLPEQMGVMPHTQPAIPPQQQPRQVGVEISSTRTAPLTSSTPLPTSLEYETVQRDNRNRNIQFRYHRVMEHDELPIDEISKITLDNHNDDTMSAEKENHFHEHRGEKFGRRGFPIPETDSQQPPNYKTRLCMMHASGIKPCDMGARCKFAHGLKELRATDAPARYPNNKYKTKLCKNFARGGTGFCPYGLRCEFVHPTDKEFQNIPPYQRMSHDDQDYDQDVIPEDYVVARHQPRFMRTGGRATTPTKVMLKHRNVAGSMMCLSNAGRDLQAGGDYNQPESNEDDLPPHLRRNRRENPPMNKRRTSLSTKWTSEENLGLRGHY
Description: potency of MEX-5 RNA-binding blockers – biochemical, C. elegans, fluorescence polarization, dose response (AID 1960).

Series [5] in a line: NIH-3T3 fibroblast cytotoxicity, dose response, cytotoxicity control, cell-based, fluorescence, Alamar Blue, secondary assay (AID 2327).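 Also: NIH-3T3 mouse fibroblasts cultured with fluconazole at 8 µg/mL.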 The format is functional. For orientation: Alamar Blue is a resazurin reagent that responds to reducing activity.
The nature of series [6]: fluconazole-exposed Candida albicans growth modulators – fluorescence, retest, confirmation (AID 2467). The format is functional, cell-based.
The target of series [7] is T4, Heat shock factor protein 1 (Mus musculus, UniProt P38532).
T4 sequence (P38532 whole entry): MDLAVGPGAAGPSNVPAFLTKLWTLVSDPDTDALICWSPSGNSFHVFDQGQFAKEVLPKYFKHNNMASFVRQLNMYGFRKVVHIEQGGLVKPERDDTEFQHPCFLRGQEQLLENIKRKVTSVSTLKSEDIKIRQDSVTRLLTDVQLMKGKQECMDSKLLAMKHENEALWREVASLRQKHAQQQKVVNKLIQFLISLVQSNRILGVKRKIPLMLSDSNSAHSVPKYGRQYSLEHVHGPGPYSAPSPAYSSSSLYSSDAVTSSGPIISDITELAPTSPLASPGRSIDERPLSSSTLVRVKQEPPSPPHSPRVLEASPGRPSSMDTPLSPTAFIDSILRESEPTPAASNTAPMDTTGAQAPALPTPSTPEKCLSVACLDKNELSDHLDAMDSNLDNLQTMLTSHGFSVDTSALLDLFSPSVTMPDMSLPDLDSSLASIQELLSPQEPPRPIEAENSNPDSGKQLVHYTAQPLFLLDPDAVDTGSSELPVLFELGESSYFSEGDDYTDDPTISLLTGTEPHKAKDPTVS
In words: enhancement of HSF1-driven luciferase signal – cell-based, NIH3T3, luminescence, dose retest, confirmation (AID 435004).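 Also: stress induced by proteasome inhibitor MG132 added 30 min after compound; luciferase reporter driven by HSF1 response element in NIH3T3 cells; actives raise luminescence as potentiators of the MG132 stress response.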 It is filed as functional.

Series [8] can be described thus: cells. It is filed as functional, cell-based.
Series [9] can be described thus: cells. The format is functional, cell-based. This is another data set of the same source.
Series [10] deals with Cytochrome P450 3A4 (Homo sapiens, UniProt P08684).
The target in series [11] is Cytochrome P450 2C19 (Homo sapiens, UniProt P33261). In words: Cytochrome panel assay with activity outcomes. Panel member name: p450-cyp2c19 Compounds with AC50 equal or less than 10 uM are considered active. The format is functional.
The nature of series [12]: viability of uninfected HEp-2 cells – cell-based, HTS, cytotoxicity control for RSV inhibitor project, dose response (AID 2410). It is filed as functional. As to conditions: human respiratory syncytial virus.
Series [13] concerns the target Large T antigen (Simian virus 40, UniProt P03070). It is filed as functional, Betapolyomavirus macacae.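 Also: Confirmatory-stage PubChem screen for compounds that inhibit SV40 T antigen.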
Series [14] concerns the target T5, Rac GTPase-activating protein 1 (Homo sapiens, UniProt Q9H0H5).
T5 sequence (Q9H0H5 whole entry): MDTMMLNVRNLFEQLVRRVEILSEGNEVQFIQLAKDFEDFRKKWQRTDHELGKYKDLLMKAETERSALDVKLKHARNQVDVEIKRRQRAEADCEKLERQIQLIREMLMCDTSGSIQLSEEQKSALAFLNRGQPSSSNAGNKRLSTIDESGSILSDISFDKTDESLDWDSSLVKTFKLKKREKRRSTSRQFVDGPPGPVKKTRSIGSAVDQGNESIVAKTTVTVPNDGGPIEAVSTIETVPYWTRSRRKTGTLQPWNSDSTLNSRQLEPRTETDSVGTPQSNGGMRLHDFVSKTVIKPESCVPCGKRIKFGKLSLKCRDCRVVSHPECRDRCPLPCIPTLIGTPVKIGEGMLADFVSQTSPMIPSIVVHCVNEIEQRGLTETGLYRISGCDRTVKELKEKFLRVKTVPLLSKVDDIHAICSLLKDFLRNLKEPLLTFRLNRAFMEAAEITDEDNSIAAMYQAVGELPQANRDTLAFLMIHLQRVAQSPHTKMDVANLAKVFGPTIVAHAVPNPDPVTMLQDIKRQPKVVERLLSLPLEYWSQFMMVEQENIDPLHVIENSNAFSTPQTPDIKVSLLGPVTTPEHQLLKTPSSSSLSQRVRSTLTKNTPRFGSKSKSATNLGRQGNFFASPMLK
Description: blockers of MgcRacGAP-driven Rac1 GTP hydrolysis – biochemical, ADP Hunter fluorescence, primary and confirmatory, confirmation (AID 624330). The format is functional.

Active and inactive are the calls of the source.

Cytochrome P450 2C9, sequence (P11712 whole entry): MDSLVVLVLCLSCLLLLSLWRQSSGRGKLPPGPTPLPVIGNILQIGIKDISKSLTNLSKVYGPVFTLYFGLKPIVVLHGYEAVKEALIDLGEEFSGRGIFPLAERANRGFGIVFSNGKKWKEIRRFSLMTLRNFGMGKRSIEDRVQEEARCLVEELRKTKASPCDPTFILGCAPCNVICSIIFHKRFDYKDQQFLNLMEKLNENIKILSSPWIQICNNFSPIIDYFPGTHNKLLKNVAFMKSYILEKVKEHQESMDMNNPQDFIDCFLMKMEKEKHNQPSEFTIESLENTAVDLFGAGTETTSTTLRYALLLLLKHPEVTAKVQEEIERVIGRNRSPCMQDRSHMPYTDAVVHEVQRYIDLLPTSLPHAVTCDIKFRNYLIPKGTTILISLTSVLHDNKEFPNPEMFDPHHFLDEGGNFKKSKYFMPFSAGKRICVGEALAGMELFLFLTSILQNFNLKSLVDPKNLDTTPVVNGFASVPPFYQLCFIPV
Large T antigen, sequence (P03070 whole entry): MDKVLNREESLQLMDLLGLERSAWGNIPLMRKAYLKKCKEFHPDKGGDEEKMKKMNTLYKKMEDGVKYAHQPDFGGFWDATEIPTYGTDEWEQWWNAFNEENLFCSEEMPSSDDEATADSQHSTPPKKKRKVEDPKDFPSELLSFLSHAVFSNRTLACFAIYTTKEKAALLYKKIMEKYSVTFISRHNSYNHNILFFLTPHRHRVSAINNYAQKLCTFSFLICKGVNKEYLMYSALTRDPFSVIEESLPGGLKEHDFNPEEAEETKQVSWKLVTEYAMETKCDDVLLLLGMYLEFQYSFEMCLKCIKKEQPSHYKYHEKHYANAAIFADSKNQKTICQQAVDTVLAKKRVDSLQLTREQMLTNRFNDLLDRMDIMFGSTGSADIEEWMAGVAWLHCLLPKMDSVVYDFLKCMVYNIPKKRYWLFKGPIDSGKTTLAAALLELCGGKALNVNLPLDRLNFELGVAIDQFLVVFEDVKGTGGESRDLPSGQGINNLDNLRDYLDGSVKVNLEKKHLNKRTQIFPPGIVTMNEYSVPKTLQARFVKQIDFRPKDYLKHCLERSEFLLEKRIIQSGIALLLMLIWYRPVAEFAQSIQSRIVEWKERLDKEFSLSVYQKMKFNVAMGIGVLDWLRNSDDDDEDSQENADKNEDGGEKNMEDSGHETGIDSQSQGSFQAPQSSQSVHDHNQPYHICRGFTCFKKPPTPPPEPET
Cytochrome P450 2C19, sequence (P33261 whole entry): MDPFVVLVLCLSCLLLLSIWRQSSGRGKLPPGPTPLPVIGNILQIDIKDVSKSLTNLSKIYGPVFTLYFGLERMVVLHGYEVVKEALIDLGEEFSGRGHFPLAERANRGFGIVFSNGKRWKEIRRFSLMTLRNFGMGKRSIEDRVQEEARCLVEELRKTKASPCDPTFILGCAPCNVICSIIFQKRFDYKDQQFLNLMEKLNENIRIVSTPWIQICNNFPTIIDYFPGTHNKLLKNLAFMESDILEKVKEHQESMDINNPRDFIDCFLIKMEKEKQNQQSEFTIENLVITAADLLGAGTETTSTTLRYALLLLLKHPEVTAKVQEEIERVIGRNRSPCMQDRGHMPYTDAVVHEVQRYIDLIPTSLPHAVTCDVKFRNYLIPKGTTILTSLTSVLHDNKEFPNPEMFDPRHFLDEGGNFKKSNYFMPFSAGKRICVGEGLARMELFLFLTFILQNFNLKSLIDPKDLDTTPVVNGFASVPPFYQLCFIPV
Cytochrome P450 3A4, sequence (P08684 whole entry): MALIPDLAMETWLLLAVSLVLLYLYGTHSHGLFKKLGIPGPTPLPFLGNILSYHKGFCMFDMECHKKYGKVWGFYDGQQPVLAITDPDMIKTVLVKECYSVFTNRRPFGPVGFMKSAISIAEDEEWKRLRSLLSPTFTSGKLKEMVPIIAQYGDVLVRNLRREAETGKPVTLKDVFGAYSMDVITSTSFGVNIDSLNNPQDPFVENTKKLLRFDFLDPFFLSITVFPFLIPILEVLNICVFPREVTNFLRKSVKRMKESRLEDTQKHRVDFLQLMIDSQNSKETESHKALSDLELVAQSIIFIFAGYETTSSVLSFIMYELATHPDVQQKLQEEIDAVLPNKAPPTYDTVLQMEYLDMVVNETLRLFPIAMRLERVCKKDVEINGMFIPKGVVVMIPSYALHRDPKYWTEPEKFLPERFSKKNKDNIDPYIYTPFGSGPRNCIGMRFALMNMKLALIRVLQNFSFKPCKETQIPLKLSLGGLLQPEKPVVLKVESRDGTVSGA

With `CC(=O)NCCNc1ncncc1-c1ccccc1C`, the AC50 (commonly the concentration giving half of the maximal activity seen) in series [1] was 25.1 µM (inconclusive); in [2], “inconclusive”.

For `N#Cc1c(-c2ccccc2Cl)c2c([nH]c1=O)-c1ccccc1OC2`, the values for the EC50 in series [3] and in [4] were > 300 µM (inconclusive) and 38.8 µM (active), respectively. Taken in the same sequence, the figures for `CN1C(=O)C(=CNc2ccc(N3CCOCC3)cc2)C(=O)N(C)C1=S` were > 300 µM (not active) and > 300 µM (inconclusive).

Turning to `O=C(COc1ccc2c(c1)CCC2)N1CCN(c2cccc(C(F)(F)F)c2)CC1`, the values for the EC50 in [5] and in series [6] were > 160 µM (inactive) and > 38 µM (not active), respectively. Taken in the same sequence, the figures for `O=C(Nc1ccc(N=Nc2ccccc2)c(NC(=O)C2CCCO2)c1)C1CCCO1` (centres undefined) were > 160 µM (inactive) and > 38 µM (not active). Turning to `S=C1N=C(c2ccccc2)NCN1c1ccc(Br)cc1`, the EC50 (commonly the midpoint of the concentration-response curve) in [7] was 236 µM (active). Turning to `COc1ccc(NC(=S)c2ccc(N(C)C)cc2)cc1`, the results for the EC50 in series [8], in series [9] and in series [7] were > 350 µM (not active), 145 µM (active) and > 260 µM (inactive), respectively. As for `O=C(NCC1COc2ccccc2O1)C1CCN(S(=O)(=O)c2cccc3nsnc23)CC1` (centres undefined), the AC50 entry in series [2] was “inconclusive”. As for `O=S1(=O)N=C(Nc2ccc(N3CCOCC3)cc2)c2ccccc21`, the EC50 in series [5] was > 160 µM (inactive); in [6], > 38 µM (not active). For `O=S(=O)(NCc1cc(-c2ccccc2Cl)no1)c1ccc(Cl)cc1`, the AC50 in series [10] is 20 µM (inconclusive); in series [2], “inconclusive”.

As to `COc1ccc2ccc(O)c(CN3CC=C(c4ccccc4)CC3)c2c1`, in [7], the EC50 was 34.6 µM (active). `CNc1nc(-c2ccccc2)cc(C)c1S(C)(=O)=O`: in [7], the EC50 was > 260 µM (inactive). On the same count and under the same terms, the value for `COc1ccc(/C=C2/SC(=O)N(CCNC(=O)C3COc4ccccc4O3)C2=O)cc1` (centres undefined) was > 260 µM (inactive). Consider `COc1ccc(CCN2C(=O)NC(=O)/C(=C\NNC(=O)c3ccncc3)C2=O)cc1OC`, for which, in [4], the EC50 is 43.7 µM (active).

With `Cc1oc(-c2ccoc2)nc1CN(CC1CCC(=O)N1)C(C)C` (centres undefined), the EC50 in series [7] was > 260 µM (inactive). The same measure, in the same setting: the value for `COc1cc(C2Nc3ccc4ncccc4c3C3=C2C(=O)CCC3)cc(OC)c1OC` (centres undefined) was 29.3 µM (active). As to `Cc1cc(NC(=O)c2ccc(S(=O)(=O)N(C)C)cc2)n(-c2ccccn2)n1`, in series [2], the AC50 entry is recorded as “inconclusive”. Turning to `CCCCNC(=S)NNC(=O)c1cc(C)on1`, the EC50 in series [3] and in [4] was > 300 µM (not active) in each case.

With `Cc1ccccc1C(=O)NNC(=O)c1ccc(F)cc1`, the AC50 result in series [2] was “inconclusive”. On to `Cc1c(C)c2c(c(C)c1O)CC[C@@](C)(CCC[C@@H](C)CCC[C@@H](C)CCCC(C)C)O2`, for which the AC50 entry in [11] and in series [2] was “inconclusive” in each case. Regarding `CC1CC2(CCCCC2)Nc2ccc3ccccc3c21` (centres undefined), in series [7], the EC50 was > 260 µM (inactive). As for `CCCn1nc(C(=O)Nc2ccc(S(=O)(=O)Nc3nccs3)cc2)c2ccccc2c1=O`, the EC50 is > 150 µM (not active) in series [3] and 27.8 µM (active) in series [4]. As for `NC(=Nc1ccccc1C(F)(F)F)Nc1nc(O)c2c(n1)CCC2`, the CC50 (commonly the concentration at which the toxic effect on the cells reaches its halfway point) in series [12] was 46.9 µM (active). In addition, the EC50 in [7] is > 260 µM (inactive). For `O=C(C[n+]1ccccc1)NN=Cc1ccc(O)cc1`, the half-inhibitory concentration (IC50) (commonly the concentration needed to halve the response being measured) in series [13] is 11.3 µM (active); in series [14], 75 µM (active). As for `Cn1cc(C(=O)C(=O)N[C@H]2CN3CCC2CC3)c2ccccc21`, the AC50 entry in series [2] is listed as “inconclusive”. As to `Cc1c(C(=O)Oc2ccc(-c3cnc4ccccc4n3)cc2)cccc1[N+](=O)[O-]`, the IC50 in series [13] was 58.2 µM (active).

For the compound `CN(C)c1cc(-c2ccc([N+](=O)[O-])cc2)oc(=O)c1Cl`, the EC50 was 49.5 µM (active) in [3] and 165 µM (inconclusive) in [4]. Take `CN(C)c1ccc(-c2nc3cnccn3c2Nc2ccc3c(c2)OCCO3)cc1`: in series [13], the IC50 is 12 µM (active). Turning to `Cc1cs/c(=N\N=C\c2ccc(O)cc2)n1Cc1ccco1`, the IC50 in series [13] is 25.5 µM (active); in [14], 28.8 µM (active).

Consider `CCN(CC)S(=O)(=O)c1ccc(N2CCOCC2)c(NC(=O)c2cc3ccccc3oc2=O)c1`, for which, in series [7], the EC50 is > 260 µM (inactive). In the case of `Cc1ccc(C)n1CCN1CCN(CC(=O)Nc2cc(C(F)(F)F)ccc2Cl)CC1`, the AC50 result in [2] is “inconclusive”.

In the case of `O=C(C1=C(O)C(=O)N(Cc2cccnc2)C1c1cccc(O)c1)c1ccc2c(c1)OCCO2` (centres undefined), the EC50 in series [7] was > 260 µM (inactive).

`CCOc1ccc(Cc2nc(C)c(CC(=O)N3CCOCC3)c(O)n2)cc1`: the AC50 result in series [2] is “inconclusive”. Take `COC(=O)C1=COC(C)C2CN3CCc4c([nH]c5cc(OC)c(OC)cc45)C3CC12` (centres undefined): the EC50 in [3] was 15.5 µM (active); in series [4], 14.4 µM (active).

Take `Oc1ccc(/N=C/c2cc(Br)c(N3CCOCC3)o2)cc1`: the IC50 in series [13] is 21.7 µM (active); in series [14], 42 µM (active). On to `N#Cc1cc(N)ccc1Sc1ccc(Cl)cc1`, for which the AC50 entry in series [2] is “inconclusive”.
